Test results published in article PMC10045904, “Polyphenol Profile of Cistus × incanus L. and Its Relevance to Antioxidant Effect and α-Glucosidase Inhibition” (Antioxidants, 2023).
≈ marks a conversion by molar mass, not a printed value. Where “and” joins values, the source holds several entries; their conditions need not be identical. Identical values can stand only once. Like-named read-outs stand apart in the source and are kept apart here.

How the values were obtained:
[1] = target: T1, α-glucosidase from Saccharomyces cerevisiae (Saccharomyces cerevisiae, UniProt P53341); assay: α-glucosidase inhibitory assay (p-NPG, 96-well microplate); type: biochemical; conditions: pure compound at 500 µg/mL, triplicate
T1 construct: purchased Sigma-Aldrich (Germany)
T1 sequence (P53341 whole entry): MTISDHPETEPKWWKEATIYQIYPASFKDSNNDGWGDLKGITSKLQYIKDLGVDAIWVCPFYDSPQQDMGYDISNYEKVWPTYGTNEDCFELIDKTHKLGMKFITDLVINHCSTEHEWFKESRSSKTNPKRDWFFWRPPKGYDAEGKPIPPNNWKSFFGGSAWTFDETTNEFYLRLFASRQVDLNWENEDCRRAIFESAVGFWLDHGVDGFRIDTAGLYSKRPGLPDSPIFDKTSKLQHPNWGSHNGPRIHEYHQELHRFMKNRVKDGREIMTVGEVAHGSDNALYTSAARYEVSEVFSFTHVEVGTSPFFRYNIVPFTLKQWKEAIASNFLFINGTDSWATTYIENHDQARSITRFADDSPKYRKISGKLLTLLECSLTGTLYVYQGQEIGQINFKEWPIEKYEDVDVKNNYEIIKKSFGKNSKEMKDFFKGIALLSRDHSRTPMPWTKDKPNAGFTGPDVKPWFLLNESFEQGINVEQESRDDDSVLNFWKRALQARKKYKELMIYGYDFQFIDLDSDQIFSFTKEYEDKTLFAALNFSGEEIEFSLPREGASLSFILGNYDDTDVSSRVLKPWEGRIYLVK
Protocol: Spectrophotometric measurements were conducted using a Multiskan GO Spectrophotometer (Thermo-Fisher Scientific). The %Inhibition was calculated from the formula % inhibition=(AControl− ASample/AControl )×100
The α-glucosidase inhibitory activity was conducted in a 96-well microplate using 4-nitrophenyl-α-D-glucopyranoside (p-NPG), as reported previously. […] […] The microplate with samples and enzyme solution was initially incubated for 5 min at 37 °C. […] The reaction was allowed to run for 10 min and afterward stopped by adding 50 µL of 0.1 M Na2CO3. The absorbance was measured at 405 nm. All of the samples were tested in triplicate.
(§1) The readings were reduced by absorbance of the sample blanks measured separately for each extract/polyphenol, which consisted of 50 µL of extract diluted in 150 µL of buffer solution only, while values obtained for uninhibited controls were reduced by absorbance values of the buffer solution (buffer blank). The activity was expressed as %inhibition. The half-maximal inhibitory concentration (IC50) values, defined as concentration of inhibitor necessary to reduce the rate of an enzymatic process by 50%, were calculated as follows: IC50=sample concentration ×50/% inhibition

[2] = target: T1, α-glucosidase from Saccharomyces cerevisiae; assay: Kinetics of α-glucosidase inhibition (Lineweaver–Burk, varying inhibitor and p-NPG concentrations); type: biochemical; conditions: for Inhibition Type (mode of α-glucosidase inhibition): Lineweaver–Burk plots, p-NPG 1–20 mM, enzyme 0.25 U/mL
Protocol: as §1, with “×50/% inhibition […]” for “×50/% inhibition”
Inhibition modes of α-glucosidase were determined according to Chu et al.. […] After 5 min of preincubation, the addition of the substrate started the reaction, and the changes in absorbance were measured at 30 s intervals. The uninhibited reaction was also run. The reaction was terminated after 10 min, and the absorbance values obtained in the kinetic study were used to create Lineweaver–Burk plots of 1/v against 1/[S].
S3. Ability of α‐glucosidase inhibition by C. incanus
Figure S1. Inhibition of α‐glucosidase by C. incanus extracts at different concentrations.
The absorbance values have been used to determine the changes in Michaelis con‐ stant (Km) and maximum velocity of reaction (Vmax). At first, the change in absorbance over time was converted to absorbance units per minute and then expressed as micromoles of chromogenic product (p‐Np) liberated in the enzymatic reaction in order to determine reaction velocity. The molar extinction coefficient of p‐NP used in the calculation was de‐ termined from its standard curve. The reciprocal of reaction velocity values of each tested compound and extract at different substrate concentrations were then plotted against the reciprocal of substrate concentrations. The intercepts of the created trendlines were uti‐ lized to calculate Km and Vmax values of each enzymatic reaction, and evaluation of altera‐

[3] = design: method as in PMID 35458630, PMID 36673365; conditions: after consumption of ellagitannin-rich foods; cited from earlier work
[4] = read-out: IC50 [µM] α-glucosidase
[5] = read-out: IC50 [µg/mL] α-glucosidase (converted)

Compound	inhibition at 500 µg/mL [1]	Inhibition Type (mode of α-glucosidase inhibition) [2]	IC50 [2, 4]	IC50 [2, 5]	α-glucosidase %inhibition [1]	IC50 [µg/mL] α-glucosidase [2]	absorption into the bloodstream [3]	IC50 ([2]; listed as cistusin, read-out: IC50 [µM] α-glucosidase)
O=c1c(O)c(-c2ccc(O)cc2)oc2cc(O)cc(O)c12 [kaempferol]	17.6%							
O=c1c(O[C@@H]2O[C@H](CO)[C@H](O)[C@H](O)[C@H]2O)c(-c2ccc(O)c(O)c2)oc2cc(O)cc(O)c12 [hyperoside, quercetin-3-O-β-galactoside]	26%							
C[C@H]1O[C@H](O[C@H]2[C@H](O)[C@@H](O)[C@@H](O[C@H]3[C@H](O)[C@@H](O)C(O)O[C@@H]3CO)O[C@@H]2CO)[C@H](O)[C@@H](O)[C@@H]1N[C@H]1C=C(CO)[C@@H](O)[C@H](O)[C@H]1O (some centres unmarked) [Acarbose, acarbose, reference compound]	13.7%	competitive						
O=c1c(O)c(-c2ccc(O)c(O)c2)oc2cc(O)cc(O)c12 [quercetin]	30 to 40%							
O=C(/C=C/c1ccc(O)cc1)OC[C@H]1O[C@@H](Oc2c(-c3ccc(O)cc3)oc3cc(O)cc(O)c3c2=O)[C@H](O)[C@@H](O)[C@@H]1O [Tiliroside, kaempferol-3-O-β-(6″-O-p-coumaroyl)glucoside]	> 70%	mixed	283 µM	283 µM	73.6%			
O=C(OC[C@H]1OC(O)[C@@H]2OC(=O)c3cc(O)c(O)c(O)c3-c3c(cc(O)c(O)c3O)C(=O)O[C@H]2[C@@H]1OC(=O)c1cc(O)c(O)c(O)c1-c1c(O)c(O)c2oc(=O)c3cc(O)c(O)c4oc(=O)c1c2c43)c1cc(O)c(O)c(O)c1 (some centres unmarked) [Terflavin A, terflavin A]		mixed	1.1 µM		> 70%	1.19 µg/mL (≈ 1.1 µM)		
O=C1OC[C@H]2OC(O)[C@H](O)[C@@H](O)[C@@H]2OC(=O)c2cc(O)c(O)c(O)c2-c2c(O)c(O)c3oc(=O)c4c(c(O)c(O)c5oc(=O)c2c3c54)-c2c1cc(O)c(O)c2O (mixture of isomers) [punicalin]							not absorbed into the bloodstream	
O=C1O[C@H]2[C@@H]3OC(=O)c4cc(O)c(O)c(O)c4-c4c(O)c(O)c5oc(=O)c6c(c(O)c(O)c7oc(=O)c4c5c76)-c4c(cc(O)c(O)c4O)C(=O)OC[C@H]3OC(O)[C@@H]2OC(=O)c2cc(O)c(O)c(O)c2-c2c1cc(O)c(O)c2O (mixture of isomers) [Punicalagin, punicalagin]	> 70%	competitive	1.1 µM and 1.14 µM	1.13 µM			not absorbed into the bloodstream	
O=c1oc2c(O)c(O)cc3c(=O)oc4c(O)c(O)cc1c4c23 [Ellagic acid, ellagic acid]	> 70%	mixed	11 µM and 10.8 µM	10.8 µM	81.9%			
Cistusin		mixed	0.66 µM		> 70%	0.83 µg/mL		0.7 µM
O=C(O)c1cc(O)c(O)c(O)c1 [Gallic acid, gallic acid]	> 70%	mixed	686 µM	688 µM and 686 µM	82.8%			
